Like-named read-outs stand apart in the source and are kept apart here.
Legend:
DtabPBP1 [1] = biological target: T1, DtabPBP1 (Dendrolimus tabulaeformis, UniProt A0A059PCM8); assay: Competitive fluorescence binding assay (displacement of 1-NPN), DtabPBP1
Method: (§1) Emission fluorescence spectra were performed on an F-4500 fluorescence Spectrophotometer (Hitachi, Japan) at 25 °C with a 1 cm light path quartz cuvette and 5 nm slits for both excitation and emission. The protein was dissolved in 50 mM Tris–HCl buffer, pH 7.4, while ligands used in the binding assay were added as 1 mM methanol solutions. The fluorescence of the mixture was recorded after 5 min to allow the signal to stabilize.
(§2) To measure the affinity of the fluorescent ligand 1-NPN to DtabPBP1, DtabGOBP1, and DtabGOBP2, a 2 μM solution of the protein in 50 mM Tris–HCl, pH 7.4, was titrated with aliquots of 1 mM 1-NPN dissolved in methanol to a final concentration of 16 μM. The probe was excited at 337 nm, and emission spectra were recorded between 380 and 450 nm. To evaluate the effect of pH on the binding affinity of the three OBPs, we also measured their binding with 1-NPN at a pH range of 4.5–9.0. The displacement of 1-NPN by selected ligands was measured in competitive binding assays using both the protein and 1-NPN at 2 μM. The mixtures were titrated with 1 mM methanol solutions of each competitor over concentration ranges of 2–16 μM. The fluorescence of the mixture was recorded after 5 min. Dissociation constants for 1-NPN and the stoichiometry of binding were obtained from Scatchard plots of the binding data through processing the data with Prism software. For other competitor ligands, the dissociation constants were calculated from the corresponding IC50 values using the equation: Ki = [IC50]/(1 + [1 − NPN]/K1 − NPN), where [1-NPN] is the free concentration of 1-NPN and K1-NPN is the dissociation constant of the protein complex/1-NPN.
(§3) To understand the ligand binding properties of the three OBPs, we prepared the recombinant proteins. Figure S5 reports the expression and purification of them. Then, we performed competitive ligand-binding experiments using well established protocols for other insect OBPs (Ban et al. [2002], [2003b]; Guo et al. [2012]; He et al. [2010]; Zhou et al. [2009]) to investigate the specificity of the binding pocket in the three D. tabulaeformis OBPs. The probe was excited at 337 nm, and emission spectra were recorded between 380 and 450 nm. […] The three proteins DtabPBP1, DtabGOBP1, and DtabGOBP2 bind 1-NPN with dissociation constants 12.5 ± 1.7, 14.4 ± 2.6, and 8.5 ± 0.6, respectively (Fig. 4a).

DtabGOBP1 [2] = biological target: T2, DtabGOBP1 (Dendrolimus tabulaeformis, UniProt A0A059PCQ9); assay: Competitive fluorescence binding assay (displacement of 1-NPN), DtabGOBP1; details: for abnormal fluorescence binding curve (in words): 1-NPN fluorescence on addition of ligand
T2 sequence (A0A059PCQ9 entry or part of it): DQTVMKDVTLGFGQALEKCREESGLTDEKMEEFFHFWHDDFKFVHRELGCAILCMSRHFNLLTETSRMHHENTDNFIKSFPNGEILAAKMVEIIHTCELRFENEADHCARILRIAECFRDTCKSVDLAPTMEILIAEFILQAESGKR
Method: as §1, §2, §3

DtabGOBP2 [3] = biological target: T3, DtabGOBP2 (Dendrolimus tabulaeformis, UniProt A0A059PCR0); assay: Competitive fluorescence binding assay (displacement of 1-NPN), DtabGOBP2
T3 sequence (A0A059PCR0 entry or part of it): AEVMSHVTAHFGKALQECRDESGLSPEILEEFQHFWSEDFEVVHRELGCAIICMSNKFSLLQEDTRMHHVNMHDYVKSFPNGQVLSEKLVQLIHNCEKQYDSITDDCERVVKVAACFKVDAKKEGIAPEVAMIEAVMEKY
Method: as §1, §2, §3

DtabGOBP2 [4] = biological target: T3, DtabGOBP2; assay: Fluorescence titration of protein with 1-NPN (Scatchard plot), DtabGOBP2; format: binding
Method: as §1
(§4) To measure the affinity of the fluorescent ligand 1-NPN to DtabPBP1, DtabGOBP1, and DtabGOBP2, a 2 μM solution of the protein in 50 mM Tris–HCl, pH 7.4, was titrated with aliquots of 1 mM 1-NPN dissolved in methanol to a final concentration of 16 μM. The probe was excited at 337 nm, and emission spectra were recorded between 380 and 450 nm. To evaluate the effect of pH on the binding affinity of the three OBPs, we also measured their binding with 1-NPN at a pH range of 4.5–9.0. The displacement of 1-NPN by selected ligands was measured in competitive binding assays using both the protein and 1-NPN at 2 μM. The mixtures were titrated with 1 mM methanol solutions of each competitor over concentration ranges of 2–16 μM. The fluorescence of the mixture was recorded after 5 min. […]
(§5) To understand the ligand binding properties of the three OBPs, we prepared the recombinant proteins. […] The probe was excited at 337 nm, and emission spectra were recorded between 380 and 450 nm. […]

DtabPBP1 [5] = biological target: T1, DtabPBP1; assay: Fluorescence titration of protein with 1-NPN (Scatchard plot), DtabPBP1; format: binding
Method: as §1, §4, §5

DtabGOBP1 [6] = biological target: T2, DtabGOBP1; assay: Fluorescence titration of protein with 1-NPN (Scatchard plot), DtabGOBP1; format: binding
Method: as §1, §4, §5

[7] = DtabPBP1, 1-NPN fluorescence at ligand max conc 16, protein and 1-NPN at 2 μM, pH 7.4, read-out: %of max±SE
[8] = DtabGOBP1, 1-NPN fluorescence at ligand max conc 16, protein and 1-NPN at 2 μM, pH 7.4, read-out: %of max±SE
[9] = DtabGOBP2, 1-NPN fluorescence at ligand max conc 16, protein and 1-NPN at 2 μM, pH 7.4, read-out: %of max±SE
[10] = DtabPBP1, 1-NPN fluorescence at ligand max conc 16, protein and 1-NPN at 2 μM, pH 7.4
[11] = DtabGOBP1, 1-NPN fluorescence at ligand max conc 16, protein and 1-NPN at 2 μM, pH 7.4
[12] = DtabGOBP2, 1-NPN fluorescence at ligand max conc 16, protein and 1-NPN at 2 μM, pH 7.4
[13] = 2 μM protein, 50 mM Tris–HCl pH 7.4, Scatchard plot, read-out: dissociation constant (Kd) of 1-NPN
[14] = pH 4.5–9.0, protein and 1-NPN at 2 μM

T1 sequence (A0A059PCM8 entry or part of it): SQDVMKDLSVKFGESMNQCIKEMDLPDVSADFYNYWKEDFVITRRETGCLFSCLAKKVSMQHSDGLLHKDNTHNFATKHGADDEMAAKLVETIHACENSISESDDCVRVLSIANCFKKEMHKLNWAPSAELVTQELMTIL

Compound	activity at 16 µM (DtabPBP1 [1]; [7])	activity at 16 µM (DtabGOBP1 [2]; [8])	activity at 16 µM (DtabGOBP2 [3]; [9])	%of max±SE (DtabPBP1 [1]; [10])	%of max±SE (DtabGOBP1 [2]; [11])	%of max±SE (DtabGOBP2 [3]; [12])	other results
CC1=CCC(=C(C)C)CC1 [Terpinolene, terpinolene]	90.3 ± 0.2%	100 ± 3.2%	85.3 ± 1.8%	–	–	–	–
CCCCCC/C=C\CCCCOC(C)=O [Z5-12:OAc, (Z)-5-dodecenyl acetate]	–	–	66.6 ± 0.7%	Abnormal	Abnormal	–	abnormal fluorescence binding curve (in words) (DtabGOBP1 [2]; DtabGOBP1): increase in fluorescence at high concentrations
C=CC(C)(O)CCC=C(C)C (stereo not shown) [Linalool, linalool]	90.4 ± 0.7%	90.4 ± 0.9%	95.2 ± 0.6%	–	–	–	–
(−)-limonene [(-)-Limonene]	–	–	–	93.8±0.6%	80.5±1.1%	94.1±0.8%	–
CC1=CCC2CC1C2(C)C (stereo not drawn) [(-)-α-Pinene, (−)-α-pinene]	–	–	–	85.4±0.4%	96.4±0.3%	90.8±0.4%	–
CCCC/C=C/C=C\CCCCOC(C)=O [Z5,E7-12:OAc, (5Z,7E)-5,7-dodecadien-1-yl acetate]	74.7 ± 1%	67.9 ± 1.1%	66.2 ± 0.3%	–	–	–	–
CC1=CCC(C(C)C)=CC1 [γ-Terpinene, γ-terpinene]	–	–	–	–	–	–	activity at 16 µM (DtabPBP1 [1]; pH 7.4, read-out: %of max±SE): 88.1 ± 0.3%; inhibition at 16 µM (DtabGOBP1 [2]; pH 7.4, read-out: 1-NPN displaced): 30%; activity at 16 µM (DtabGOBP1 [2]; pH 7.4, read-out: %of max±SE): 71.8 ± 0.7%; activity at 16 µM (DtabGOBP2 [3]; pH 7.4, read-out: %of max±SE): 99.3 ± 0.4%
c1ccc(Nc2cccc3ccccc23)cc1 [1-NPN]	–	–	–	–	–	–	Kd (DtabGOBP2 [4]; [13]): 8.5 ± 0.6 µM; effect of pH on affinity for 1-NPN (in words) (DtabGOBP2 [4]; [14]): rapid loss of affinity in acidic conditions; Kd (DtabPBP1 [5]; [13]): 12.5 ± 1.7 µM; effect of pH on affinity for 1-NPN (in words) (DtabPBP1 [5]; [14]): rapid loss of affinity in acidic conditions; Kd (DtabGOBP1 [6]; [13]): 14.4 ± 2.6 µM; effect of pH on affinity for 1-NPN (in words) (DtabGOBP1 [6]; [14]): rapid loss of affinity in acidic conditions
CC1=CCC2C(C1)C2(C)C (single isomer, unassigned; (+)) [(+)-3-Carene, (+)-3-carene]	–	–	–	85.3±1.7%	Abnormal	84.3±0.9%	abnormal fluorescence binding curve (in words) (DtabGOBP1 [2]; DtabGOBP1): increased 1-NPN fluorescence
C=C(C)C1CC=C(C)CC1 (single isomer, unassigned; (+)) [(+)-Limonene, (+)-limonene]	–	–	–	94.4±0.4%	78.2±1.1%	88.0±1.3%	–
C=C1CCC2CC1C2(C)C (stereo not drawn) [(-)-β-Pinene, (−)-β-pinene]	–	–	–	80.7±0.5%	82.8±1.0%	83.2±1.1%	–
CCCCCC/C=C\CCCCO [Z5-12:OH, (Z)-5-dodecenyl alcohol]	75.1 ± 0.2%	77.2 ± 0.3%	67 ± 0.5%	–	–	–	–
C=CC(=C)CCC=C(C)C [β-Myrene, β-myrene]	–	–	–	86.5±0.8%	67.8±0.8%	83.3±0.7%	1-NPN displaced (DtabGOBP1 [2]; DtabGOBP1, at a max concentration of ligand): 30%
C=C1C2CCC(C2)C1(C)C (stereo not shown) [Camphene, camphene]	–	–	–	–	–	–	activity at 16 µM (DtabPBP1 [1]; pH 7.4, read-out: %of max±SE): 96.5 ± 0.2%; activity at 16 µM (DtabGOBP1 [2]; pH 7.4, read-out: %of max±SE): 96.7 ± 1.2%; activity at 16 µM (DtabGOBP2 [3]; pH 7.4, read-out: %of max±SE): 93.8 ± 0.7%
CC1=CC=C(C(C)C)CC1 [α-Terpinene, α-terpinene]	–	–	–	–	–	–	activity at 16 µM (DtabPBP1 [1]; pH 7.4, read-out: %of max±SE): 86.7 ± 0.7%; activity at 16 µM (DtabGOBP1 [2]; pH 7.4, read-out: %of max±SE): 81.8 ± 1.3%; activity at 16 µM (DtabGOBP2 [3]; pH 7.4, read-out: %of max±SE): 93.2 ± 0.9%
(+)-α-pinene	–	–	–	83.9±0.3%	98.3±2.2%	88.8±2.2%	–
CCCC/C=C/C=C\CCCCO [Z5,E7-12:OH, (5Z,7E)-5,7-dodecadien-1-ol]	74.5 ± 0.6%	81 ± 1%	65.6 ± 0.8%	–	–	–	–
CC/C=C\CCO [(Z)-3-Hexen-1-ol, (Z)-3-hexen-1-ol]	–	–	–	–	–	–	activity at 16 µM (DtabPBP1 [1]; pH 7.4, read-out: %of max±SE): 94.6 ± 0.2%; activity at 16 µM (DtabGOBP1 [2]; pH 7.4, read-out: %of max±SE): 96.5 ± 1.4%; activity at 16 µM (DtabGOBP2 [3]; pH 7.4, read-out: %of max±SE): 90.8 ± 0.6%
CCCC/C=C/C=C\CCCCOC(=O)CC [Z5,E7-12:OPr, (5Z,7E)-5,7-dodecadien-1-yl propionate]	44.5 ± 0.6%	37.1 ± 0.5%	44.8 ± 0.7%	–	–	–	Ki (DtabPBP1 [1]; DtabPBP1): 3.61 µM; binding affinity / displacement of 1-NPN (in words) (DtabPBP1 [1]; DtabPBP1): high binding affinities; Kd (DtabPBP1 [1]; DtabPBP1, calculated from IC50 of 1-NPN displacement, read-out: KD±SE): 3.6 ± 0.3 µM; Ki (DtabGOBP1 [2]; DtabGOBP1): 1900 nM; binding affinity / displacement of 1-NPN (in words) (DtabGOBP1 [2]; DtabGOBP1): high binding affinities; Kd (DtabGOBP1 [2]; DtabGOBP1, calculated from IC50 of 1-NPN displacement, read-out: KD±SE): 1900 ± 200 nM; Ki (DtabGOBP2 [3]; DtabGOBP2): 2700 nM; binding affinity / displacement of 1-NPN (in words) (DtabGOBP2 [3]; DtabGOBP2): high binding affinities; Kd (DtabGOBP2 [3]; DtabGOBP2, calculated from IC50 of 1-NPN displacement, read-out: KD±SE): 2700 ± 300 nM

Reference: article PMC4008786, “Molecular Characterization, Expression Pattern, and Ligand-Binding Property of Three Odorant Binding Protein Genes from Dendrolimus tabulaeformis” (Journal of Chemical Ecology, 2014)
